Laboratory results from patent publication US20060178372A1, “Therapeutic quinoline compounds” (AstraZeneca AB, priority 2001, published 2006).

System: not given
Assay: not given
Conditions: not given
CN1CCN(c2cccc3c2OC(C(=O)Nc2ccc(N4CCOCC4)cc2)CC3)CC1 (racemic) [Example 75, racemic-8-(4-Methyl-piperazin-1-yl)-chroman-2-carboxylic acid (4-morpholin-4-yl-phenyl)-amide] gave a melting point of 215 to 216 °C.
Compound CN1CCN(c2cccc3c2OC(C(=O)Nc2ccc(N4CCOCC4)cc2)CC3=O)CC1 (racemic) [Example 78, racemic-8-(4-methyl-piperazin-1-yl)-4-oxo-chroman-2-carboxylic acid (4-morpholin-4-yl-phenyl)-amide] has a melting point of 215 to 216 °C.
For CN1CCN(c2cccc3c2OC(C(=O)Nc2ccc(N4CCOCC4)cc2)CC3=O)CC1 (single isomer, unassigned) [Example 79, 8-(4-Methyl-piperazin-1-yl)-4-oxo-chroman-2-carboxylic acid (4-morpholin-4-yl-phenyl)-amide (faster running isomer)], the melting point was 216 °C (dec.).
In the case of CN1CCN(c2cccc3c2OC(C(=O)Nc2ccc(N4CCOCC4)cc2)CC3=O)CC1 (single isomer, unassigned) [Example 80, 8-(4-Methyl-piperazin-1-yl)-4-oxo-chroman-2-carboxylic acid (4-morpholin-4-yl-phenyl)-amide (slower running isomer)], the melting point is reported as 215 °C (dec.).
Compound CN1CCN(c2cccc3c2OC(C(=O)Nc2ccc(N4CCOCC4)cc2)CC3)CC1 (single isomer, unassigned; (+)) [Example 76, (+)-8-(4-Methyl-piperazin-1-yl)-chroman-2-carboxylic acid (4-morpholin-4-yl-phenyl)-amide] has a melting point of 206 to 207 °C.
Work on CN1CCN(c2cccc3c2OC(C(=O)Nc2ccc(N4CCOCC4)cc2)CC3)CC1 (single isomer, unassigned; (-)) [Example 77, (−)-8-(4-Methyl-piperazin-1-yl)-chroman-2-carboxylic acid (4-morpholin-4-yl-phenyl)-amide] yielded a melting point of 205.5 to 207 °C.
In the case of CN1CCN(c2cccc3c(=O)cc(C(=O)Nc4ccc(N5CCOCC5)cc4)oc23)CC1 [Example 1, 8-(4-methyl-1-piperazinyl)-N-[4-(4-morpholinyl)phenyl]-4-oxo-4H-chromene-2-carboxamide], the melting point is reported as 217 to 218 °C (dec.).
Work on CN1CCN(c2cccc3c(=O)cc(-c4nc5ccc(N6CCOCC6)cc5o4)oc23)CC1 [Example 21, 8-(4-Methyl-piperazin-1-yl)-2-(6-morpholin-4-yl-benzooxazol-2-yl)-chromen-4-one] yielded a melting point of 158.1 to 158.8 °C.
CN1CCN(c2cccc3c(=O)cc(C(=O)Nc4ccc(N5CCOCC5)cc4O)oc23)CC1 [Example 22, 8-(4-Methyl-piperazin-1-yl)-4-oxo-4H-chromene-2-carboxylic acid (2-hydroxy-4-morpholin-4-yl-phenyl)-amide] gave a melting point of 248.4 to 249.6 °C.
Compound CN1CCN(c2cccc3c(=O)cc(C(=O)N(C)c4ccc(N5CCOCC5)cc4)oc23)CC1 [Example 25, 8-(4-Methylpiperazin-1-yl)-4-oxo-4H-chromene-2-carboxylic acid methyl-(4-morpholin-4-yl-phenyl)amide] has a melting point of 245 to 246.8 °C.
COc1cc(N2CCN(C)CC2)c2oc(C(=O)Nc3ccc(N4CCOCC4)cc3)cc(=O)c2c1 [Example 31, 6-Methoxy-8-(4-methyl-piperazin-1-yl)-4-oxo-4H-chromene-2-carboxylic acid (4-morpholin-4-yl-phenyl)-amide] gave a melting point of 234 to 236 °C.
Work on COc1cc(N2CCN(C)CC2)c2oc(C(=O)Nc3ccc(N4CCN(C(=O)CCO)CC4)cc3)cc(=O)c2c1 [Example 68, 6-Methoxy-8-(4-methyl-piperazin-1-yl)-4-oxo-4H-chromene-2-carboxylic acid {4-[4-(3-hydroxy-propanoyl)-piperazin-1-yl]-phenyl}-amide] yielded a melting point of 195 to 197 °C.
CCS(=O)(=O)N1CCN(c2ccc(NC(=O)c3cc(=O)c4cc(F)cc(N5CCN(C)CC5)c4o3)cc2)CC1 [Example 71, 6-Fluoro-8-(4-methyl-piperazin-1-yl)-4-oxo-4H-chromene-2-carboxylic acid [4-(4-ethane sulfonyl-piperazin-1-yl)-phenyl]-amide] gave a melting point of 233 to 234 °C.
In the case of CN1CCN(c2cc(F)cc3c(=O)cc(C(=O)Nc4ccc(N5CCN(C(=O)CCO)CC5)cc4)oc23)CC1 [Example 73, 6-Fluoro-8-(4-methyl-piperazin-1-yl)-4-oxo-4H-chromene-2-carboxylic acid {4-[4-(3-hydroxy-propanoyl)-piperazin-1-yl]-phenyl}-amide], the melting point is reported as 195 to 199 °C.
For CCNC(=O)N1CCN(c2ccc(NC(=O)c3cc(=O)c4cc(F)cc(N5CCN(C)CC5)c4o3)cc2)CC1 [Example 81, 4-[4-({1-[6-Fluoro-8-(4-methyl-piperazin-1-yl)-4-oxo-4H-chromen-2-yl]-methanoyl}-amino)-phenyl]-piperazine-1-carboxylic acid ethylamide], the melting point was 236 to 238 °C.

System: guinea pigs
Assay: learned helplessness test for antidepressant/antianxiety activity
Type: in vivo
Conditions: guinea pig
Text: The utility of the compounds for example to treat depression may be shown via a learned helplessness test in guinea pigs, which is used extensively as correlative to antidepressant activity in humans. The learned helplessness test may be carried out as follows: Seventy male Hartley guinea pigs, each weighing about 350-425 gm are fed ad lib, and are housed under a 12-hour light/dark cycle. The procedure consists of two phases: The induction phase and the avoidance training phase. In the induction phase, subjects are placed into standard shuttle cages (20 L×16 W×21 centimeters H) which are fitted with a grid floor. Electrical stimulation (1.25 mA, 10 sec duration) is delivered to the floor of the cage every 90-sec during 1 hour daily sessions. Subjects have no opportunity to escape or to avoid shocks. Induction is conducted for 2 consecutive days.
In avoidance training, testing is also conducted in the shuttle cages, except that the subjects are not returned to the same chamber in which induction had occurred. Additionally, all cages are fitted with a partition with an arch in the center of the cage, through which animals can pass between the left and right halves of the cage. The procedure employed is a standard shuttle avoidance procedure in which a compound, conditioned stimulus (a 10-sec presentation of a tone and turning on of a lamp on the side of the cage that the guinea pig was occupying) serves to indicate presentation of electrical current to the floor of the cage. Shock is presented for a 5 sec period, 5 sec after initiation of the conditioned stimulus. Entry into the opposite side of the shuttle cage via the arched partition prior to shock onset results in the end of the trial (avoidance response). If shock is delivered, entry into the opposite side of the cage results in termination of the shock and CS (escape). Reversal of learned helplessness in the induction subjects correlates to antidepressant activity of the test compound.
Avoidance training, 45-min in duration, is conducted on 2 consecutive days, beginning 48 hr after the final induction session. Seventy subjects are assigned to 1 of 6 groups of 11-12 animals. The groups are as follows:
1) No induction group. The subjects are placed into the shuttle cages but are not given inescapable shock, the animals are subsequently trained in the avoidance procedure and the vehicle is administered;
2) Induction vehicle control group;
3) Imipramine 17.8 mg/kg;
5) 1 mg/kg compounds; and
Groups 2-6 are given induction and avoidance training sessions. Injections are administered immediately following induction sessions and 1 hour prior to avoidance training sessions. A second injection is administered 7-8 hours following the first injection, for a total of 9 injections administered over 5 days. […]
In the case of COc1cc(N2CCN(C)CC2)c2oc(C(=O)Nc3ccc(N4CCOCC4)cc3)cc(=O)c2c1 [Example 31, 6-Methoxy-8-(4-methyl-piperazin-1-yl)-4-oxo-4H-chromene-2-carboxylic acid (4-morpholin-4-yl-phenyl)-amide], the “activity in the learned helplessness assay” value (“activity” for short) is reported as “demonstrate activity”.
With CCC(=O)N1CCN(c2ccc(NC(=O)c3cc(=O)c4cc(OC)cc(N5CCN(C)CC5)c4o3)cc2)CC1 [Example 44, 6-Methoxy-8-(4-methyl-piperazin-1-yl)-4-oxo-4H-chromene-2-carboxylic acid [4-(4-propionyl-piperazin-1-yl)-phenyl]-amide] the “activity” value was “demonstrate activity”.
In the case of CCS(=O)(=O)N1CCN(c2ccc(NC(=O)c3cc(=O)c4cc(F)cc(N5CCN(C)CC5)c4o3)cc2)CC1 [Example 71, 6-Fluoro-8-(4-methyl-piperazin-1-yl)-4-oxo-4H-chromene-2-carboxylic acid [4-(4-ethane sulfonyl-piperazin-1-yl)-phenyl]-amide], the “activity” value is reported as “demonstrate activity”.
For CCC(=O)N1CCN(c2ccc(NC(=O)c3cc(=O)c4cc(F)cc(N5CCN(C)CC5)c4o3)cc2)CC1 [Example 72, 6-Fluoro-8-(4-methyl-piperazin-1-yl)-4-oxo-4H-chromene-2-carboxylic acid [4-(4-propionyl-piperazin-1-yl)-phenyl]-amide], the “activity” value was “demonstrate activity”.
